According to patent US5322854A, “Reveromycin A, method for preparing the same, and antitumor agent and antifungal agent comprising the same” (Rikagaku Kenkyusho, priority 1990, dated 1994):

How the values were obtained:
TGF-α = details: background art; cited from earlier work
[1] = background art; cited from earlier work
mouse epithelial cells = experiment: Cell toxicity in mouse epithelial cells; type: cell-based; details: 50 μg/ml
Acute toxicity = details: mouse, in vivo, iv
src^ts -NRK cells = experiment: Cell toxicity in src^ts-NRK cells; type: cell-based, Rat; details: 50 μg/ml, 32° C.

## O=CN/C=C/c1cc(O)ccc1O [Erbstatin]
TGF-α
  potency: not sufficiently potent
[1]
  effect in blood: lose their effects in blood

## CCCC[C@@]1(OC(=O)CCC(=O)O)CC[C@]2(CC[C@H](C)[C@@H](C/C=C(C)/C=C/[C@H](O)[C@@H](C)/C=C/C(=O)O)O2)O[C@H]1/C=C/C(C)=C/C(=O)O [Reveromycin A]
Mouse epithelial cells
  cell toxicity: observed
Acute toxicity
  LD50: ≥ 100 mg/kg
src^ts -NRK cells
  cell toxicity: observed
Solubility; aqueous acidic solution
  Solubility: insoluble
Solubility; dimethylsulfoxide, ethyl acetate, and methanol
  Solubility: easily soluble
